Assay results from the OligoGym collection.
Oligonucleotides are given in HELM: sugar(base)linkage, 5' to 3'; d 2'-deoxyribose, r ribose, m 2'-O-methylribose, p phosphate. ss, as = sense and antisense strand

Molecular target: Mmp7 (rat)
Test: reporter assay of Huesken 2005
Conditions: siRNA
Note: test concentration or dose not given here.

Substance	normalised inhibition (eCFP-eYFP dual reporter) [%]
RNA1{r(C)p.r(A)p.r(G)p.r(U)p.r(G)p.r(C)p.r(A)p.r(G)p.r(U)p.r(G)p.r(G)p.r(A)p.r(C)p.r(A)p.r(A)p.r(A)p.r(C)p.r(U)p.r(G)p.d(T)p.d(T)}|RNA2{r(C)p.r(A)p.r(G)p.r(U)p.r(U)p.r(U)p.r(G)p.r(U)p.r(C)p.r(C)p.r(A)p.r(C)p.r(U)p.r(G)p.r(C)p.r(A)p.r(C)p.r(U)p.r(G)p.d(G)p.d(T)}$$$RNA1{StrandType:ss}|RNA2{StrandType:as}$	100
RNA1{r(A)p.r(A)p.r(C)p.r(U)p.r(U)p.r(C)p.r(C)p.r(C)p.r(A)p.r(U)p.r(U)p.r(U)p.r(G)p.r(A)p.r(U)p.r(G)p.r(G)p.r(G)p.r(C)p.d(T)p.d(T)}|RNA2{r(G)p.r(C)p.r(C)p.r(C)p.r(A)p.r(U)p.r(C)p.r(A)p.r(A)p.r(A)p.r(U)p.r(G)p.r(G)p.r(G)p.r(A)p.r(A)p.r(G)p.r(U)p.r(U)p.d(G)p.d(T)}$$$RNA1{StrandType:ss}|RNA2{StrandType:as}$	0.2
RNA1{r(A)p.r(G)p.r(U)p.r(U)p.r(C)p.r(U)p.r(U)p.r(C)p.r(G)p.r(G)p.r(U)p.r(U)p.r(U)p.r(G)p.r(C)p.r(C)p.r(G)p.r(G)p.r(A)p.d(T)p.d(T)}|RNA2{r(U)p.r(C)p.r(C)p.r(G)p.r(G)p.r(C)p.r(A)p.r(A)p.r(A)p.r(C)p.r(C)p.r(G)p.r(A)p.r(A)p.r(G)p.r(A)p.r(A)p.r(C)p.r(U)p.d(T)p.d(C)}$$$RNA1{StrandType:ss}|RNA2{StrandType:as}$	53.8
RNA1{r(C)p.r(C)p.r(G)p.r(G)p.r(A)p.r(G)p.r(A)p.r(A)p.r(G)p.r(U)p.r(G)p.r(A)p.r(C)p.r(C)p.r(G)p.r(C)p.r(A)p.r(C)p.r(U)p.d(T)p.d(T)}|RNA2{r(A)p.r(G)p.r(U)p.r(G)p.r(C)p.r(G)p.r(G)p.r(U)p.r(C)p.r(A)p.r(C)p.r(U)p.r(U)p.r(C)p.r(U)p.r(C)p.r(C)p.r(G)p.r(G)p.d(C)p.d(T)}$$$RNA1{StrandType:ss}|RNA2{StrandType:as}$	94.4
RNA1{r(G)p.r(G)p.r(G)p.r(A)p.r(A)p.r(C)p.r(A)p.r(G)p.r(G)p.r(C)p.r(G)p.r(C)p.r(A)p.r(G)p.r(A)p.r(A)p.r(U)p.r(U)p.r(A)p.d(T)p.d(T)}|RNA2{r(U)p.r(A)p.r(A)p.r(U)p.r(U)p.r(C)p.r(U)p.r(G)p.r(C)p.r(G)p.r(C)p.r(C)p.r(U)p.r(G)p.r(U)p.r(U)p.r(C)p.r(C)p.r(C)p.d(A)p.d(C)}$$$RNA1{StrandType:ss}|RNA2{StrandType:as}$	93.6
RNA1{r(U)p.r(G)p.r(U)p.r(U)p.r(U)p.r(G)p.r(U)p.r(U)p.r(G)p.r(C)p.r(C)p.r(A)p.r(C)p.r(U)p.r(C)p.r(A)p.r(U)p.r(G)p.r(A)p.d(T)p.d(T)}|RNA2{r(U)p.r(C)p.r(A)p.r(U)p.r(G)p.r(A)p.r(G)p.r(U)p.r(G)p.r(G)p.r(C)p.r(A)p.r(A)p.r(C)p.r(A)p.r(A)p.r(A)p.r(C)p.r(A)p.d(G)p.d(G)}$$$RNA1{StrandType:ss}|RNA2{StrandType:as}$	105
RNA1{r(A)p.r(A)p.r(G)p.r(U)p.r(G)p.r(A)p.r(C)p.r(C)p.r(G)p.r(C)p.r(A)p.r(C)p.r(U)p.r(U)p.r(C)p.r(A)p.r(G)p.r(U)p.r(G)p.d(T)p.d(T)}|RNA2{r(C)p.r(A)p.r(C)p.r(U)p.r(G)p.r(A)p.r(A)p.r(G)p.r(U)p.r(G)p.r(C)p.r(G)p.r(G)p.r(U)p.r(C)p.r(A)p.r(C)p.r(U)p.r(U)p.d(C)p.d(T)}$$$RNA1{StrandType:ss}|RNA2{StrandType:as}$	79.7
RNA1{r(A)p.r(A)p.r(G)p.r(U)p.r(U)p.r(C)p.r(U)p.r(U)p.r(C)p.r(G)p.r(G)p.r(U)p.r(U)p.r(U)p.r(G)p.r(C)p.r(C)p.r(G)p.r(G)p.d(T)p.d(T)}|RNA2{r(C)p.r(C)p.r(G)p.r(G)p.r(C)p.r(A)p.r(A)p.r(A)p.r(C)p.r(C)p.r(G)p.r(A)p.r(A)p.r(G)p.r(A)p.r(A)p.r(C)p.r(U)p.r(U)p.d(C)p.d(T)}$$$RNA1{StrandType:ss}|RNA2{StrandType:as}$	1.8
RNA1{r(G)p.r(A)p.r(C)p.r(U)p.r(U)p.r(C)p.r(A)p.r(G)p.r(U)p.r(C)p.r(U)p.r(U)p.r(A)p.r(C)p.r(A)p.r(A)p.r(A)p.r(G)p.r(G)p.d(T)p.d(T)}|RNA2{r(C)p.r(C)p.r(U)p.r(U)p.r(U)p.r(G)p.r(U)p.r(A)p.r(A)p.r(G)p.r(A)p.r(C)p.r(U)p.r(G)p.r(A)p.r(A)p.r(G)p.r(U)p.r(C)p.d(T)p.d(T)}$$$RNA1{StrandType:ss}|RNA2{StrandType:as}$	92.9
RNA1{r(A)p.r(G)p.r(A)p.r(C)p.r(A)p.r(U)p.r(C)p.r(A)p.r(U)p.r(A)p.r(A)p.r(U)p.r(U)p.r(G)p.r(G)p.r(C)p.r(U)p.r(U)p.r(C)p.d(T)p.d(T)}|RNA2{r(G)p.r(A)p.r(A)p.r(G)p.r(C)p.r(C)p.r(A)p.r(A)p.r(U)p.r(U)p.r(A)p.r(U)p.r(G)p.r(A)p.r(U)p.r(G)p.r(U)p.r(C)p.r(U)p.d(G)p.d(C)}$$$RNA1{StrandType:ss}|RNA2{StrandType:as}$	99.4
RNA1{r(U)p.r(G)p.r(G)p.r(G)p.r(A)p.r(A)p.r(C)p.r(A)p.r(G)p.r(G)p.r(C)p.r(G)p.r(C)p.r(A)p.r(G)p.r(A)p.r(A)p.r(U)p.r(U)p.d(T)p.d(T)}|RNA2{r(A)p.r(A)p.r(U)p.r(U)p.r(C)p.r(U)p.r(G)p.r(C)p.r(G)p.r(C)p.r(C)p.r(U)p.r(G)p.r(U)p.r(U)p.r(C)p.r(C)p.r(C)p.r(A)p.d(C)p.d(T)}$$$RNA1{StrandType:ss}|RNA2{StrandType:as}$	46.8
RNA1{r(G)p.r(U)p.r(G)p.r(U)p.r(C)p.r(A)p.r(U)p.r(G)p.r(G)p.r(A)p.r(G)p.r(A)p.r(U)p.r(A)p.r(A)p.r(U)p.r(G)p.r(C)p.r(A)p.d(T)p.d(T)}|RNA2{r(U)p.r(G)p.r(C)p.r(A)p.r(U)p.r(U)p.r(A)p.r(U)p.r(C)p.r(U)p.r(C)p.r(C)p.r(A)p.r(U)p.r(G)p.r(A)p.r(C)p.r(A)p.r(C)p.d(G)p.d(G)}$$$RNA1{StrandType:ss}|RNA2{StrandType:as}$	112
RNA1{r(A)p.r(G)p.r(A)p.r(A)p.r(G)p.r(U)p.r(G)p.r(A)p.r(C)p.r(C)p.r(G)p.r(C)p.r(A)p.r(C)p.r(U)p.r(U)p.r(C)p.r(A)p.r(G)p.d(T)p.d(T)}|RNA2{r(C)p.r(U)p.r(G)p.r(A)p.r(A)p.r(G)p.r(U)p.r(G)p.r(C)p.r(G)p.r(G)p.r(U)p.r(C)p.r(A)p.r(C)p.r(U)p.r(U)p.r(C)p.r(U)p.d(C)p.d(C)}$$$RNA1{StrandType:ss}|RNA2{StrandType:as}$	32.9
RNA1{r(C)p.r(U)p.r(A)p.r(C)p.r(C)p.r(U)p.r(A)p.r(U)p.r(C)p.r(A)p.r(A)p.r(G)p.r(G)p.r(A)p.r(G)p.r(A)p.r(U)p.r(C)p.r(A)p.d(T)p.d(T)}|RNA2{r(U)p.r(G)p.r(A)p.r(U)p.r(C)p.r(U)p.r(C)p.r(C)p.r(U)p.r(U)p.r(G)p.r(A)p.r(U)p.r(A)p.r(G)p.r(G)p.r(U)p.r(A)p.r(G)p.d(G)p.d(G)}$$$RNA1{StrandType:ss}|RNA2{StrandType:as}$	114
